In US9708602B2, “Screening for inhibitors of ribosome biogenesis” (priority 2013, dated 2017):

How the values were obtained:
[1] = tested on: MCrg* cells; test: Probing MCrg* with ribosome-targeting antibiotics: whole-cell growth and mAzami/mCherry fluorescence ratio; type: cell-based, E. coli
Description: (§1) Whole-cell analyses (A-B): MCrg* cells were cultured in at 25° C. in M9 medium for 7 hours in the absence and presence of antibiotics, as indicated. Samples were taken every hour. (A) OD600 values were determined and (B) mAzami and mCherry fluorescence emission were detected and ratios were calculated. Fluorescence ratios of MCrg* were normalized to 1. Exemplary growth curves are given and fluorescence ratios are means from three independent experiments; error bars show s.d. Analyses of isolated ribosomal particles (C-H and J-M): Sucrose density gradient (10-25%) centrifugation profiles from (C) control cells with no antibiotic (none), (D) chloramphenicol (Cam), (E) erythromycin (Ery), (F) kanamycin (Kan) and (G) neomycin (Neo) treated cells. Sucrose gradient fractions from (C) to (G) were analyzed for fluorescence by a micro plate reader. A254 profiles and fluorescence bar charts were superimposed for (H) control cells with no antibiotic (none), (J) chloramphenicol (Cam), (K) erythromycin (Ery), (L) kanamycin (kan) and (M) neomycin (Neo) treated cells. Cells in presence and absence of antibiotics were cultured in LB medium at 25° C. for 3 hours before subsequent polysome analysis. Left shifted peaks of the large subunit are indicated by horizontal arrows, abnormal portions of the small subunit by vertical arrows; Bars with black lines: normalized mCherry fluorescence; Black bars: normalized mAzami fluorescence. Fluorescence was normalized to the first polysome peak (“disome”) where subunits are present in 1:1 ratio.
(§2) Using MCrg*, it was investigated, whether treatment of cells with ribosome targeting antibiotics results in assembly defects of both ribosomal subunits. The antibiotics tested were chloramphenicol, erythromycin and neomycin, which are known to cause assembly defects of both ribosomal subunits, and kanamycin, which was so far not investigated for its potential to cause ribosome assembly defects. MCrg* cells were cultured in M9 medium for seven hours in the absence or presence of chloramphenicol (7 μg/ml), erythromycin (100 μg/ml), kanamycin (7 μg/ml) or neomycin (7 μg/ml). […] Treatment with chloramphenicol, by contrast, led to an increased fluorescence ratio, with a maximum of 1.20 after 7 hours. […] This hypothesis was tested by analyzing ribosome profiles obtained from MCrg* cells that grew in the presence of the antibiotics or without (FIG. 15C-G). […] The 70S peak and the polysomes (not shown) are reduced in intensity since no chloramphenicol was added prior to harvesting to prevent 70S run off.

[2] = tested on: ribosomal subunits of MCrg* cells; test: Sucrose density gradient ribosome profiles (A254 and fluorescence of fractions) of antibiotic treated MCrg* cells; type: cell-based, E. coli; conditions: for 30S peak region in A254 ribosome profile / 50S peak in A254 ribosome profile: cells cultured with antibiotic in LB medium at 25° C. for 3 hours, 10-25% sucrose gradient; for green (mAzami, large subunit) fluorescence in overlay of A254 and fluorescence profiles: sucrose gradient fractions, micro plate reader
Description: as §1, §2
When focusing on the overlay diagrams (combining A254 and fluorescence read outs) (FIG. 15H, J-M), ribosome profiles from non treated cells are basically congruent (FIG. 15H). […] These peaks of green fluorescence presumably represent defective assembly intermediates of the large subunit that are caused by all the antibiotics used in this study, but to different extend. […] To analyze eventual defects of the small subunit in more detail, the red fluorescence profiles were aligned and the one derived from non treated cells was compared with all the others obtained from antibiotic treated cells. […] A more thorough analysis including quantitation of the 16S and 23S rRNA within the sucrose fractions confirmed the presence of assembly intermediates.
E. coli cells were inoculated from stationary cultures and incubated until mid-logarithmic phase (OD600=0.6-0.8). In order to record polysome profiles, cells were sedimented, resuspended and lysed. After centrifugation, lysates of 10 A260 units were loaded onto 5-45% sucrose gradients for polysome profiles or 10-40% gradients for subunit separation. Ultracentrifugation was performed at 41.000 rpm (3 h; polysome profiles) or 23.000 rpm (16 h, subunit separation). Ribosomal components in the gradients were analyzed by recording the A254 values and collecting 200 μl and 50 μl fractions, respectively, that were later examined in 96-well plates on fluorescence by using a plate reader.

[3] = tested on: E. coli MC4100 and MC-RG1 cells; test: Detection of ribosome assembly defects: growth (A650) and EGFP/mCherry fluorescence time course in 96-well plates; type: cell-based; conditions: 30° C., 96-well plate
Excerpt: Monitoring biogenesis and assembly of ribosomal subunits also allows the detection of abnormalities in ribosome biogenesis and assembly processes. […] Chloramphenicol primarily binds to the large subunit and thereby inhibits the peptidyl transfer reaction. Alongside a resulting shut-down of protein synthesis, accumulating precursor particles of both ribosomal subunits have been observed. Therefore, treatment of cells with chloramphenicol causes precursor accumulation and assembly defects of ribosomal subunits. E. coli MC4100 and MC-RG1 cells were transferred to 96-well plates and incubated at 30° C. in a plate reader. After one hour, wild-type and reporter cells were treated with increasing amounts of chloramphenicol and incubation was continued for another six more hours. A650 values, EGFP and mCherry specific fluorescence intensities were automatically detected. In the absence of chloramphenicol, the growth curve of the reporter strain reached a maximum A650 of 0.5. […] In vivo fluorescence recordings of the E. coli MC4100rp/S-egfp,rpsB-mcherry-ΔygdP cells growing in 96-well plates were performed and fluorescent signals measured. EGFP/mCherry fluorescence intensity ratios differed clearly when comparing MC4100rp/S-egfp,rpsB-mcherry (RN55b) with MC4100rplS-egfp,rpsB-mcherry-ΔygdP reporter strains. […] The overall decreased EGFP/mCherry fluorescence ratio values of the knock-out strain compared to the RN55b reporter strain are caused by proportional lower EGFP fluorescence intensities. In summary, fluorescence recordings of reporter strains are suitable to detect changes in the level of ribosomal subunits, e.g. due to biogenesis defects.
Cells grown to stationary phase were diluted to an OD600 of 0.05 and transferred into 96-well plates, such that each well contained an initial volume of 100 μl. […] Cells were further incubated in the plate reader for several hours and fluorescence as well as A650 data were collected every 10 minutes. Mean values were calculated and MC4100 fluorescence background values were subtracted from the reporter strain values.

Compound	normalized fluorescence ratio (mAzami/mCherry) ([1]; erythromycin 100 μg/ml, after 5 hours, untreated MCrg* normalized to 1)	30S peak region in A254 ribosome profile [2]	50S peak in A254 ribosome profile [2]	green (mAzami, large subunit) fluorescence in overlay of A254 and fluorescence profiles [2]	change in the fluorescence ratio (mAzami/mCherry) ([1]; 7 μg/ml, seven hours time course)	concentration above which cells did not grow any further ([3]; added after one hour, six more hours incubation)	cell growth (A650) ([3]; increasing amounts added after one hour, six more hours incubation)	EGFP and mCherry fluorescence ([3]; increasing concentrations)	cell growth (OD600) ([1]; M9 medium, seven hours, 25° C., chloramphenicol 7 μg/ml, erythromycin 100 μg/ml, kanamycin 7 μg/ml, neomycin 7 μg/ml)	normalized fluorescence ratio (mAzami/mCherry), maximum ([1]; chloramphenicol 7 μg/ml, after 7 hours, untreated MCrg* normalized to 1)
CC[C@H]1OC(=O)[C@H](C)[C@@H](O[C@H]2C[C@@](C)(OC)[C@@H](O)[C@H](C)O2)[C@H](C)[C@@H](O[C@@H]2O[C@H](C)C[C@H](N(C)C)[C@H]2O)[C@](C)(O)C[C@@H](C)C(=O)[C@H](C)[C@@H](O)[C@]1(C)O [erythromycin]	0.95	30S peak had a shoulder on the left	reduced and left shifted 50S peaks	portion of green fluorescence within the region of the 30S peak	–	–	–	–	–	–
neomycin	–	additional peak on the left of the 30S peak	slight reduction and left shift of the 50S peak	green fluorescent peaks of weaker intensity but at similar positions within the profile	did not show a significant change in the fluorescence ratio	–	–	–	–	–
O=C(N[C@H](CO)[C@H](O)c1ccc([N+](=O)[O-])cc1)C(Cl)Cl [chloramphenicol]	–	additional peak (left-lateral of 30S)	reduced and left shifted 50S peaks	portion of green fluorescence within the region of the 30S peak	–	higher than 15.5 μM	dosedependent reduction of cell growth	decreased with increasing concentrations	strongest growth defects	1.20
